Laboratory results as given in patent US4072760A, “Bronchospasmolytic phenylethanolamines” (Pharmacia AS, priority 1974, dated 1978).
Like-named read-outs stand apart in the source and are kept apart here.

Experiments:
[1] = test system: β2 -stimulation, lungs guinea pig; assay: Bronchospasmolytic effect (β2 -stimulation), Konzett-Rossler technique in anaesthetized guinea pig lungs; assay type: in vivo; settings: Cavia porcellus, doses as free base of the racemic compound
[2] = test system: β1 -stimulation, heart rate mice; assay: Heart rate increasing effect (β1 -stimulation) in pentobarbital anaesthetized mice; assay type: in vivo; settings: Mus musculus, iv, dose giving an increase in heart rate of 100 beats/min, as free base
Description: An especially valuable feature of the present invention is that typical and preferred representative of the compounds of the invention show a high bronchial selectivity (ratio of bronchospasmolytic activity to heart rate increasing effect) as compared to existing well-known broncholytics. […] The ratio, heart rate increasing dose ("ED 100") divided by bronchospasmolytic dose (ED 50), is a measure of the degree of selectivity of the bronchospasmolytic action. This ratio was calculated for a number of the compounds of the invention and for some of the most relevant compounds of reference.

[3] = test system: β2 -stimulation versus β1 -stimulation; assay: Bronchial selectivity: heart rate increasing dose ("ED 100") divided by bronchospasmolytic dose (ED 50); assay type: in vivo; settings: heart rate ED 100 (mice, i.v.) / bronchospasmolytic ED 50 (guinea pig, i.v.)
Description: The ratio, heart rate increasing dose ("ED 100") divided by bronchospasmolytic dose (ED 50), is a measure of the degree of selectivity of the bronchospasmolytic action. This ratio was calculated for a number of the compounds of the invention and for some of the most relevant compounds of reference.

in vivo = settings: mouse
Description: Furthermore the acute toxicity in mice after intraveneous and oral administration is given.

conscious guinea pigs [4] = assay: Bronchospasmolytic dose in conscious guinea pigs, acetylcholine aerosol as spasmogen (Wardell); assay type: in vivo; settings: pressurized aerosol of 1% acetylcholine, more active than salbutamol
Description: (§1) The effective bronchospasmolytic doses of the two compounds were determined using a pressurized aerosol of a 1% acetylcholine solution as the spasmogen according to the method of […]. Pharmacol Exp. Therap. 1974, 189, 167-184 and the heart rate was determined according to Farmer et al. (Br. J. Pharmac. Chemotherap. 1968, 32, 193-200.

conscious guinea pigs [5] = assay: Heart rate in conscious guinea pigs (Farmer et al.); assay type: in vivo
Description: as §1

[6] = test system: β-stimulation of the skeletal muscles; assay: Tremor-inducing activity (β-stimulation of the skeletal muscles) compared to bronchospasmolytic activity in cats (Bowman and Nott); assay type: in vivo
Description: For a few of the compounds of the invention, the tremor-inducing activity (β-stimulation of the skeletal muscles) was determined in cats (in accordance with the technique of Bowman, W. C. and Nott, M. W.: Actions of some sympathomimetic bronchodilator and beta-adrenoceptor blocking drugs on contractions of the cat soleus muscle, Brit. J. Pharmac., 1970, 38, 37-49) and compared to the bronchospasmolytic activity in the same species.

dogs = settings: dog, in vivo
Excerpt: (§2) Compounds of the present invention are well tolerated, as appears from the table.

[7] = design: species or system rate; settings: in vivo
Excerpt: as §2

[8] = i.d. = intraduodenally, read-out: β2 -stimulation lungs guinea pig ED 50 i.d.
[9] = iv, read-out: β2 -stimulation lungs guinea pig ED 50 i.v.

## CC(C)(C)NCC(O)c1ccc(O)c(CO)c1 (centres unmarked) [Saloutamol, salbutamol, reference compound]
[1]; [8]
  ED50: 5 mg/kg
[1]; [9]
  ED50: 0.01 mg/kg
[2]
  ED (increase of 100 beats/min): 0.1 mg/kg

## COc1cc(CNc2cc(C(O)CNC(C)(C)C)ccc2O)ccc1O.Cl (stereo not drawn) [3-(3-Methoxy-4-hydroxybenzylamino)-4-hydroxy-α-(tert.butylaminomethyl)-benzylalcohol hydrochloride]
[1]; [9]
  ED50: 0.02 mg/kg
[2]
  ED (increase of 100 beats/min): 0.05 mg/kg
[3]
  Ratio "ED 100"/ED 50: 2.5
In vivo; iv
  LD50: 10 to 30 mg/kg
In vivo; po
  LD50: > 2000 mg/kg

## CC(C)(C)NCC(O)c1ccc(O)c(NCc2ccc(O)cc2)c1.Cl (stereo not drawn) [3-(4-Hydroxybenzylamino)-4-hydroxy-α-(tert.butylaminomethyl)benzylalcohol hydrochloride]
[1]; [8]
  ED50: 10 mg/kg
[1]; [9]
  ED50: 0.01 mg/kg
[2]
  ED (increase of 100 beats/min): 0.07 mg/kg
[3]
  Ratio "ED 100"/ED 50: 7
In vivo; iv
  LD50: 20 mg/kg
In vivo; po
  LD50: > 2000 mg/kg

## COc1ccc(CNc2cc(C(O)CNC(C)(C)C)ccc2O)cc1.Cl (stereo not drawn) [3-(4-Methoxybenzylamino)-4-hydroxy-α-(tert.butylaminomethyl)-benzylalcohol hydrochloride]
[1]; [8]
  ED50: 1 mg/kg
[1]; [9]
  ED50: 0.003 mg/kg
[2]
  ED (increase of 100 beats/min): 0.1 mg/kg
[3]
  Ratio "ED 100"/ED 50: 33
Conscious guinea pigs [4]
  broncholytic activity relative to salbutamol: 10 times
Conscious guinea pigs [5]
  heart rate stimulating effect compared with salbutamol: the heart rate stimulating effect was the same
[6]
  ratio between bronchospasmolytic dose and tremor-inducing dose, compared with salbutamol: a better ratio than salbutamol
dogs
  acute intravenous and oral toxicity test: tolerability: good tolerability
  two week tolerance test in dogs: tolerability: good tolerability
[7]
  three month toxicity test: toxic reactions: no toxic reactions
In vivo; iv
  LD50: 20 mg/kg
In vivo; po
  LD50: 300 mg/kg

## CC(C)NCC(O)c1ccc(O)c(NS(C)(=O)=O)c1 (centres unmarked) [Soterenol, reference compound]
[1]; [9]
  ED50: 0.02 mg/kg
[2]
  ED (increase of 100 beats/min): 0.04 mg/kg
[3]
  Ratio "ED 100"/ED 50: 2
In vivo; iv
  LD50: 60 mg/kg
In vivo; po
  LD50: 750 mg/kg

## CN(C)c1ccc(CNc2cc(C(O)CNC(C)(C)C)ccc2O)cc1.Cl (stereo not drawn) [3-(4-Dimethylaminobenzylamino)-4-hydroxy-α-(tert.butylaminomethyl)benzylalcohol hydrochloride]
[1]; [9]
  ED50: 0.02 mg/kg
[2]
  ED (increase of 100 beats/min): ≥ 0.1 mg/kg
[3]
  Ratio "ED 100"/ED 50: ≥ 5
In vivo; iv
  LD50: 20 mg/kg
In vivo; po
  LD50: 700 mg/kg

## CC(C)NCC(O)c1cc(O)cc(O)c1 (centres unmarked) [Orciprenaline, reference compound]
[1]; [9]
  ED50: 0.1 mg/kg
[2]
  ED (increase of 100 beats/min): 0.01 mg/kg

## CC(C)(C)NCC(O)c1ccc(O)c(NCc2ccc([N+](=O)[O-])cc2)c1.Cl (stereo not drawn) [3-(4-Nitrobenzylamino)-4-hydroxy-α-(tert.butylaminomethyl)-benzylalcohol hydrochloride]
[1]; [8]
  ED50: 0.5 mg/kg
[1]; [9]
  ED50: 0.01 mg/kg
[2]
  ED (increase of 100 beats/min): 0.1 mg/kg
[3]
  Ratio "ED 100"/ED 50: 10
In vivo; iv
  LD50: 60 mg/kg
In vivo; po
  LD50: 400 mg/kg

## CC(C)(C)NCC(O)c1ccc(O)c(NC(=O)c2ccc([N+](=O)[O-])cc2)c1.Cl (stereo not drawn) [3-(4-nitrobenzamido)-4-hydroxy-α-(tert.butylaminomethyl)benzylalcohol hydrochloride]
[1]; [8]
  ED50: 10 mg/kg
[1]; [9]
  ED50: 0.1 mg/kg
[2]
  ED (increase of 100 beats/min): > 1 mg/kg
[3]
  Ratio "ED 100"/ED 50: > 10
In vivo; iv
  LD50: 40 mg/kg
In vivo; po
  LD50: > 2000 mg/kg

## CC(C)NCC(O)c1ccc(O)c(O)c1 (centres unmarked) [Isoprenaline, reference compound]
[1]; [9]
  ED50: 0.005 mg/kg
[2]
  ED (increase of 100 beats/min): 0.0003 mg/kg

## CC(C)(C)NCC(O)c1ccc(O)c(NCc2cccc(O)c2)c1 (stereo not drawn) [3-(3-hydroxybenzylamino)-4-hydroxy-α-(tert.butylaminomethyl) benzylalcohol]
[1]; [8]
  ED50: 10 mg/kg
[1]; [9]
  ED50: 0.01 mg/kg
[2]
  ED (increase of 100 beats/min): 0.025 mg/kg
[3]
  Ratio "ED 100"/ED 50: 2.5
In vivo; iv
  LD50: 20 mg/kg
In vivo; po
  LD50: ≥ 2000 mg/kg

## COCCOc1ccc(CNc2cc(C(O)CNC(C)(C)C)ccc2O)cc1.Cl (stereo not drawn) [3-[4-(2-Methoxyethoxy)benzylamino]-4-hydroxy-α-(tert.butylaminomethyl)-benzylalcohol hydrochloride]
[1]; [8]
  ED50: 1 mg/kg
[1]; [9]
  ED50: 0.01 mg/kg
[2]
  ED (increase of 100 beats/min): 0.1 mg/kg
[3]
  Ratio "ED 100"/ED 50: 10
In vivo; iv
  LD50: 20 mg/kg
In vivo; po
  LD50: > 1000 mg/kg

## CC(C)(C)NCC(O)c1ccc(O)c(NC(=O)c2ccc(Cl)cc2)c1.Cl (stereo not drawn) [3-(4-Chlorobenzamido)-4-hydroxy-α-(tert.butylaminomethyl)benzylalcohol hydrochloride]
[1]; [9]
  ED50: 0.5 mg/kg
In vivo; iv
  LD50: 60 mg/kg
In vivo; po
  LD50: > 2000 mg/kg

## CC(C)(C)NCC(O)c1ccc(O)c(NC(=O)c2ccc(Cl)c(Cl)c2)c1.Cl (stereo not drawn) [3-(3,4-Dichlorobenzamido)-4-hydroxy-α-(tert.butylaminomethyl)benzylalcohol hydrochloride]
[1]; [9]
  ED50: 0.1 mg/kg
In vivo; iv
  LD50: 60 mg/kg
In vivo; po
  LD50: > 2000 mg/kg

## CC(C)(C)NCC(O)c1ccc(O)c(NC(=O)c2cc(O)cc(O)c2)c1.Cl (stereo not drawn) [3-(3,5-Dihydroxybenzamido)-4-hydroxy-α-(tert.butylaminomethyl)-benzylalcohol hydrochloride]
[1]; [8]
  ED50: 20 mg/kg
[1]; [9]
  ED50: 0.3 mg/kg
In vivo; iv
  LD50: 20 mg/kg
In vivo; po
  LD50: > 2000 mg/kg

## CC(C)(C)NCC(O)c1ccc(O)c(NC(=O)c2cccc([N+](=O)[O-])c2)c1.Cl (stereo not drawn) [3-(3-Nitrobenzamido)-4-hydroxy-α-(tert.butylaminomethyl)benzylalcohol hydrochloride]
[1]; [9]
  ED50: 0.3 mg/kg
In vivo; iv
  LD50: 60 mg/kg
In vivo; po
  LD50: > 2000 mg/kg

## CC(C)(C)NCC(O)c1cc(O)cc(O)c1 (centres unmarked) [Terbutaline, reference compound]
[1]; [8]
  ED50: 10 mg/kg
[1]; [9]
  ED50: 0.03 mg/kg
[2]
  ED (increase of 100 beats/min): 0.3 mg/kg
[3]
  Ratio "ED 100"/ED 50: 10
In vivo; iv
  LD50: 40 mg/kg
In vivo; po
  LD50: > 2000 mg/kg

## CCOc1ccc(CNc2cc(C(O)CNC(C)(C)C)ccc2O)cc1.Cl (stereo not drawn) [3-(4-Ethoxybenzylamino)-4-hydroxy-α-(tert.butylaminomethyl)benzylalcohol hydrochloride]
[1]; [8]
  ED50: 5 mg/kg
[1]; [9]
  ED50: 0.01 mg/kg
[2]
  ED (increase of 100 beats/min): 0.1 mg/kg
[3]
  Ratio "ED 100"/ED 50: 10
In vivo; iv
  LD50: 20 mg/kg
In vivo; po
  LD50: 400 mg/kg

## COc1ccc(CNc2cc(C(O)CNC(C)(C)C)ccc2O)cc1OC.Cl (stereo not drawn) [3-(3,4-Dimethoxybenzylamino)-4-hydroxy-α-(tert.butylaminomethyl)benzylalcohol hydrochloride]
[1]; [8]
  ED50: 10 mg/kg
[1]; [9]
  ED50: 0.01 mg/kg
[2]
  ED (increase of 100 beats/min): 0.09 mg/kg
[3]
  Ratio "ED 100"/ED 50: 9
In vivo; iv
  LD50: 20 mg/kg
In vivo; po
  LD50: > 2000 mg/kg

## COc1ccc(C(=O)Nc2cc(C(O)CNC(C)(C)C)ccc2O)cc1.Cl (stereo not drawn) [3-(4-methoxybenzamido)-4-hydroxy-α-(tert.butylaminomethyl)benzylalcohol hydrochloride]
[1]; [8]
  ED50: 10 mg/kg
[1]; [9]
  ED50: 0.1 mg/kg
[2]
  ED (increase of 100 beats/min): > 1 mg/kg
[3]
  Ratio "ED 100"/ED 50: > 10
[6]
  ratio between bronchospasmolytic dose and tremor-inducing dose, compared with salbutamol: the same ratio between bronchospasmolytic dose and tremor-inducing dose as salbutamol
In vivo; iv
  LD50: 80 mg/kg
In vivo; po
  LD50: > 2000 mg/kg

## CC(C)Oc1ccc(CNc2cc(C(O)CNC(C)(C)C)ccc2O)cc1.Cl (stereo not drawn) [3-(4-Isopropoxybenzylamino)-4-hydroxy-α-(tert.butylaminomethyl)-benzylalcohol hydrochloride]
[1]; [9]
  ED50: 0.03 mg/kg
[2]
  ED (increase of 100 beats/min): 0.1 mg/kg
[3]
  Ratio "ED 100"/ED 50: 3.3
In vivo; iv
  LD50: 20 mg/kg
In vivo; po
  LD50: 400 mg/kg

## CC(C)(C)NCC(O)c1ccc(O)c(NCc2ccc(OCC(N)=O)cc2)c1 (stereo not drawn) [3-[4-(carbamoylmethoxy)benzylamino]-4-hydroxy-α-(tert.butylaminomethyl)benzylalcohol]
[1]; [8]
  ED50: 10 mg/kg
[1]; [9]
  ED50: 0.01 mg/kg
[2]
  ED (increase of 100 beats/min): 0.1 mg/kg
[3]
  Ratio "ED 100"/ED 50: 10
In vivo; iv
  LD50: 20 mg/kg
In vivo; po
  LD50: > 1000 mg/kg

## COc1c(C)cc(CNc2cc(C(O)CNC(C)(C)C)ccc2O)cc1C.Cl (stereo not drawn) [3-(3,5-Dimethyl-4-methoxybenzylamino)-4-hydroxy-α-(tert.butylaminomethyl)benzylalcohol hydrochloride]
[1]; [8]
  ED50: 3 mg/kg
[1]; [9]
  ED50: 0.03 mg/kg
[2]
  ED (increase of 100 beats/min): 0.3 mg/kg
[3]
  Ratio "ED 100"/ED 50: 10
In vivo; iv
  LD50: 20 mg/kg
In vivo; po
  LD50: 1500 mg/kg

## Cc1ccc(CNc2cc(C(O)CNC(C)(C)C)ccc2O)cc1.Cl (stereo not drawn) [3-(4-Methylbenzylamino)-4-hydroxy-α-(tert.butylaminomethyl)benzylalcohol hydrochloride]
[1]; [9]
  ED50: 0.07 mg/kg
In vivo; iv
  LD50: 20 mg/kg
In vivo; po
  LD50: 700 mg/kg
